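A five-concentration, 48-hour dose response in 96-well plates underlies each endpoint, interpolated linearly between surrounding concentrations. GI50 = concentration required for 50% inhibition of growth. TGI denotes the concentration required for complete inhibition of growth.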
Tests used:
Assay in all cases: NCI tumour cell line growth inhibition, 48 h
[1] = test system: SK-MEL-5 melanoma
[2] = test system: IGROV1 ovarian
[3] = test system: HOP-62 NSCLC
[4] = test system: UO-31 renal
[5] = test system: MDA-MB-435
[6] = test system: BT-549 breast
[7] = test system: OVCAR-8 ovarian
[8] = test system: KM12 colon
[9] = test system: NCI-H23 lung
[10] = test system: OVCAR-4 ovarian

Row | SMILES | GI50 [1] [µM] | TGI [1] [µM] | GI50 [2] [µM] | TGI [2] [µM] | GI50 [3] [µM] | TGI [3] [µM] | GI50 [4] [µM] | TGI [4] [µM] | GI50 [5] [µM] | TGI [5] [µM] | GI50 [6] [µM] | TGI [6] [µM] | GI50 [7] [µM] | TGI [7] [µM] | GI50 [8] [µM] | TGI [8] [µM] | GI50 [9] [µM] | TGI [9] [µM] | TGI [10] [µM]
1 | CC(=O)O[C@@H]1C=CC(=O)C2(CC(=O)O[C@@H]2/C=C(\C)CCC=C(C)C)C1 (some centres not stated) | 1.31 | 3.1 | 0.965 | 2.47 | 1.36 | 3.4 | 1.58 | 3.59 | 0.369 | 1.6 | 1.15 | 3.54 | 0.35 | 1.81 | 1.3 | 4.16 | 0.365 | 1.33 | –
2 | CN(C)C1(C#N)CCC2(CC1)OCCO2 | – | > 100 | – | > 100 | – | > 100 | – | > 100 | – | – | – | – | – | > 100 | – | > 100 | – | > 100 | > 100
3 | CC(C)NC(=O)OCc1nnn2c1C(OC(=O)NC(C)C)CC2 (configuration not stated) | – | > 100 | – | > 100 | – | – | – | > 100 | – | – | – | – | – | > 100 | – | > 100 | – | > 100 | > 100
4 | COC(=O)C1=C(O)C(O)=C(C(=O)OC)CC1 | – | > 100 | – | > 100 | – | > 100 | – | > 100 | – | – | – | – | – | > 100 | – | > 100 | – | > 100 | > 100
5 | O=C(Nc1nc2ncn(CCOC(=O)c3ccccc3)c2c(=O)[nH]1)c1ccccc1 | – | > 100 | – | > 100 | – | > 100 | – | > 100 | – | 8.32 | – | – | – | > 100 | – | > 100 | – | > 100 | –
6 | C=C1C(=O)OC2C1C(OC(=O)/C(=C/C)COC(C)=O)CC1(CO1)C1C(OC(=O)/C(=C/C)CO)C=C(C)C21 (configuration not stated) | – | 5.05 | – | 3.82 | – | – | – | 11.2 | – | – | – | – | – | 25.3 | – | 15.3 | – | 3.97 | 7.53
7 | CN1CCC(O)C(CNC23CC4CC(CC(C4)C2)C3)C1 (configuration not stated) | – | > 100 | – | – | – | > 100 | – | > 100 | – | – | – | – | – | > 100 | – | > 100 | – | > 100 | > 100
8 | CC(=O)OC1COC(N2C(=O)C(=O)c3c(C)cc(Cl)nc32)C(OC(C)=O)C1OC(C)=O (configuration not stated) | – | > 100 | – | > 100 | – | > 100 | – | > 100 | – | – | – | – | – | > 100 | – | > 100 | – | > 100 | > 100
9 | O=C(c1ccccc1)c1nnn(Cc2cccc(Cl)c2)c1C(=O)c1ccccc1 | – | > 100 | – | > 100 | – | > 100 | – | > 100 | – | – | – | – | – | > 100 | – | > 100 | – | > 100 | > 100
10 | C1=C[C@@H]2c3ccc4cnccc4c3NC[C@@H]2C1 | – | > 100 | – | > 100 | – | > 100 | – | > 100 | – | > 100 | – | > 100 | – | > 100 | – | > 100 | – | > 100 | –
11 | CCCCN(CCCC)C(=Nc1ccccc1)N(CCCC)CCCC | – | – | – | 23.1 | – | 20.5 | – | 14.3 | – | – | – | – | – | 24.9 | – | 22.6 | – | 5.97 | –
12 | N#Cc1c([N+](=O)[O-])cc(C(F)(F)F)cc1[N+](=O)[O-] | – | 23.8 | – | 20.8 | – | 32.8 | – | 33.5 | – | – | – | – | – | 4.36 | – | 12.4 | – | 19.2 | 5.57

Reference: PubChem BioAssay (NCI)
